Source: BindingDB's records for doi:10.1210/endo.135.6.7988476 (Mcgill University, 1994)
Bridge positions count the residues as written; N and C are the ends. Square brackets hold non-standard residues; d marks the D form. Peptide text beside a SMILES is read from it. * marks the point of attachment. NH(1-naphthylmethyl) = c1ccc2c(CN*)cccc2c1; Phe(4-Cl) = N[C@@H](Cc1ccc(Cl)cc1)C(=O)O; dPhe(4-Cl) = N[C@H](Cc1ccc(Cl)cc1)C(=O)O; 2Nal = N[C@@H](Cc1ccc2ccccc2c1)C(=O)O; d1Nal = N[C@H](Cc1cccc2ccccc12)C(=O)O; d2Nal = N[C@H](Cc1ccc2ccccc2c1)C(=O)O; 1Nal = N[CH](Cc1cccc2ccccc12)C(=O)O; Thr(ol) = C[CH](O)[CH](N)CO; Abu = CC[C@H](N)C(=O)O

Experiments:
[1] = biological target: Somatostatin receptor type 3 (Homo sapiens, UniProt P32745)
[2] = biological target: Somatostatin receptor type 1 (Homo sapiens, UniProt P30872)
[3] = biological target: Somatostatin receptor type 2 (Homo sapiens, UniProt P30874)
[4] = biological target: Somatostatin receptor type 4 (Homo sapiens, UniProt P31391)
Sequence of Somatostatin receptor type 4 (P31391 whole entry): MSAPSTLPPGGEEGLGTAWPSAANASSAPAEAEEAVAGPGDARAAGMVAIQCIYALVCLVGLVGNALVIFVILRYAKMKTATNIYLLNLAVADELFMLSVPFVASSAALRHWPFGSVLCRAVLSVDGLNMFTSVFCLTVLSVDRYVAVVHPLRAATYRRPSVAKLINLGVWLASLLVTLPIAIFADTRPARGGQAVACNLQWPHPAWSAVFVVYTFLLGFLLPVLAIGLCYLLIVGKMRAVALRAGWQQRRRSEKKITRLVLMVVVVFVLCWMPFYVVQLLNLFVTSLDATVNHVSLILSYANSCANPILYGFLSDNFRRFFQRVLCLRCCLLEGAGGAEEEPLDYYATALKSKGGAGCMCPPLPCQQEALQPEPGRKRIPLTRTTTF

Sequence of Somatostatin receptor type 1 (P30872 whole entry): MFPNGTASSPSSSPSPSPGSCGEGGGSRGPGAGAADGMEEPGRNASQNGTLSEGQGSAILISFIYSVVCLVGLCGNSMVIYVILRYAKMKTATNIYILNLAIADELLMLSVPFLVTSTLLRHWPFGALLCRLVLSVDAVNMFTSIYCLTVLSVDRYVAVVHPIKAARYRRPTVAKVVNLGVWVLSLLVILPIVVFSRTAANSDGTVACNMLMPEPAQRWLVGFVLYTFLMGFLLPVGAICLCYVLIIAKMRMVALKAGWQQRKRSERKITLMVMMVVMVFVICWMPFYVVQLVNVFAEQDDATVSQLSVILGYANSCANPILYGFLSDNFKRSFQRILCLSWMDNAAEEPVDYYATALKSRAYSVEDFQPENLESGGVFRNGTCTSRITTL
Sequence of Somatostatin receptor type 3 (P32745 whole entry): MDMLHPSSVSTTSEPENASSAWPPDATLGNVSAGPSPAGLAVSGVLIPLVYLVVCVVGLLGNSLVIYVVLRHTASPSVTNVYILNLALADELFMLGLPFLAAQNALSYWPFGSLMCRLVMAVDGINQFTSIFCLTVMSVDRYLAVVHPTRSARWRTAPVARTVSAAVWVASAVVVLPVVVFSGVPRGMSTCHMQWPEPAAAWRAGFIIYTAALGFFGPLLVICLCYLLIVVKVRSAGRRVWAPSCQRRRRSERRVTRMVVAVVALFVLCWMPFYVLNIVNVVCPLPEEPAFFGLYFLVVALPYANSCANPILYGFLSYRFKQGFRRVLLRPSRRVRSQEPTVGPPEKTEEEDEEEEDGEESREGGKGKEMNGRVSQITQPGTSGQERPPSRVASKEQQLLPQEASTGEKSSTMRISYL
Sequence of Somatostatin receptor type 2 (P30874 whole entry): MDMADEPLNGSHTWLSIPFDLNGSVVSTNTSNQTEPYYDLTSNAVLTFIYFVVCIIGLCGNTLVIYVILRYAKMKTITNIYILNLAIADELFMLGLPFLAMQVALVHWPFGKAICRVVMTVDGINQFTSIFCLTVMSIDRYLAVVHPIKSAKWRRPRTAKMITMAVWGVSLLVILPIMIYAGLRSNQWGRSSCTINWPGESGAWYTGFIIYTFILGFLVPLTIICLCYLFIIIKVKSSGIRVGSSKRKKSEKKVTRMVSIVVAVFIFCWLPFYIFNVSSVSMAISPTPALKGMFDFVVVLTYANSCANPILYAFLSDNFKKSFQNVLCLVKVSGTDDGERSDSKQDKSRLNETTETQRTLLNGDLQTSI

Structure (SMILES) | Ki [1] [nM] | Ki [2] [nM] | Ki [3] [nM] | Ki [4] [nM]
CC(C)[C@@H]1NC(=O)[C@H](CCCCN)NC(=O)[C@@H](Cc2c[nH]c3ccccc23)NC(=O)[C@H](Cc2ccc(O)cc2)NC(=O)[C@@H](C)N(C)C(=O)[C@H](Cc2ccccc2)NC1=O | 14.6 | 107 |  | 
CC(C)[C@@H]1NC(=O)[C@H](CCCCN)NC(=O)[C@@H](Cc2c[nH]c3ccccc23)NC(=O)[C@H](Cc2ccc(O)cc2)NC(=O)[C@@H](NC(=O)[C@H](N)Cc2ccc3ccccc3c2)CSSC[C@@H](C(=O)N[C@H](C(N)=O)[C@@H](C)O)NC1=O [3-(2-Naphtyl)-D-Ala-L-Cys(1)-L-Tyr-D-Trp-L-Lys-L-Val-L-Cys(1)-L-Thr-NH2] | 43 |  | 1.8 | 
CC1NC(=O)C(CCCCN)NC(=O)C(Cc2c[nH]c3ccccc23)NC(=O)C(Cc2ccc(O)cc2)NC(=O)C(NC(=O)C(N)Cc2ccccc2)CSSCC(C(=O)NCc2cccc3ccccc23)NC1=O (configuration not stated) [BIM 23034] (H-FCYWKAC-{NH(1-naphthylmethyl)}; disulfide 2-7; configuration not given here) | 7.7 |  | 2.7 | 27
CC(C)[C@@H]1NC(=O)[C@H](CCCCN)NC(=O)[C@@H](Cc2c[nH]c3ccccc23)NC(=O)[C@H](Cc2ccc(O)cc2)NC(=O)[C@@H](NC(=O)[C@H](N)Cc2ccc3ccccc3c2)CSSC[C@@H](C(=O)N[C@@H](Cc2ccc3ccccc3c2)C(N)=O)NC1=O [BIM 23042] (H-[d2Nal]CY[dW]KVC[2Nal]-NH2; disulfide 2-7) |  |  | 0.24 | 1000
C[C@H](NC(=O)[C@H](N)Cc1ccccc1)C(=O)N[C@@H](Cc1ccccc1)C(=O)N[C@H](Cc1c[nH]c2ccccc12)C(=O)N[C@@H](CCCCN)C(=O)N[C@H](C(=O)N[C@@H](C)C(=O)N[C@H](C(N)=O)[C@@H](C)O)[C@@H](C)O [BIM 23051] (H-[dF]AF[dW]KTAT-NH2) |  |  | 1000 | 49
CC(C)[C@H](NC(=O)[C@H](CCCCN)NC(=O)[C@@H](Cc1c[nH]c2ccccc12)NC(=O)[C@H](Cc1ccc(O)cc1)NC(=O)[C@H](Cc1ccccc1)NC(=O)[C@H](N)Cc1ccccc1)C(=O)N[C@@H](Cc1ccccc1)C(=O)N[C@H](Cc1cccc2ccccc12)C(N)=O [BIM 23056] (H-[dF]FY[dW]KVF[d1Nal]-NH2) | 10.8 | 142 | 1000 | 16.6
CC(C)[C@H](NC(=O)[C@H](CCCCN)NC(=O)[C@@H](Cc1c[nH]c2ccccc12)NC(=O)[C@H](Cc1ccc(O)cc1)NC(=O)[C@H](Cc1ccc(Cl)cc1)NC(=O)[C@H](N)Cc1ccccc1)C(=O)N[C@@H](Cc1ccccc1)C(=O)N[C@H](C(N)=O)[C@@H](C)O [BIM 23057] (H-[dF][Phe(4-Cl)]Y[dW]KVFT-NH2) |  |  | 1000 | 38.5
CC(O)C1NC(=O)C(CCCCN)NC(=O)C(Cc2c[nH]c3ccccc23)NC(=O)C(Cc2ccc(O)cc2)NC(=O)C(NC(=O)C(N)Cc2ccccc2)CSSCC(C(=O)NCc2cccc3ccccc23)NC1=O (configuration not stated) [BIM 23060] (H-FCYWKTC-{NH(1-naphthylmethyl)}; disulfide 2-7; configuration not given here) | 14.6 | 61 | 0.71 | 56
CC[C@H](NC(=O)[C@@H](N)Cc1ccc(Cl)cc1)C(=O)N[C@@H](Cc1ccc(O)cc1)C(=O)N[C@H](Cc1c[nH]c2ccccc12)C(=O)N[C@@H](CCCCN)C(=O)N[C@H](C(=O)N[C@@H](C)C(=O)N[C@H](Cc1ccccc1)C(N)=O)C(C)C [BIM 23067] (H-[Phe(4-Cl)][Abu]Y[dW]KVA[dF]-NH2) | 14.6 | 1000 | 44.4 | 1000
C[C@@H](O)[C@H](NC(=O)[C@H](Cc1ccccc1)NC(=O)[C@@H](NC(=O)[C@H](CCCCN)NC(=O)[C@@H](Cc1c[nH]c2ccccc12)NC(=O)[C@H](Cc1ccc(O)cc1)NC(=O)[C@H](Cc1ccc(Cl)cc1)NC(=O)[C@H](N)Cc1ccccc1)[C@@H](C)O)C(N)=O [BIM 23068] (H-[dF][Phe(4-Cl)]Y[dW]KTFT-NH2) | 1.54 |  | 1.55 | 9.8
CC(C)[C@H](NC(=O)[C@H](CCCCN)NC(=O)[C@@H](Cc1c[nH]c2ccccc12)NC(=O)[C@H](Cc1ccc(O)cc1)NC(=O)[C@H](Cc1ccccc1)NC(=O)[C@H](N)Cc1ccccc1)C(=O)N[C@@H](Cc1ccccc1)C(=O)N[C@H](C(N)=O)[C@@H](C)O [BIM-23058] (H-[dF]FY[dW]KVFT-NH2) | 1.4 | 115 | 9.8 | 8.3
CC(C)[C@@H]1NC(=O)[C@H](CCCCN)NC(=O)[C@@H](Cc2c[nH]c3ccccc23)NC(=O)[C@H](Cc2ccc(O)cc2)NC(=O)[C@@H](NC(=O)[C@H](N)Cc2ccccc2)CSSC[C@@H](C(=O)N[C@@H](Cc2c[nH]c3ccccc23)C(N)=O)NC1=O [CAS_71306] (H-[dF]CY[dW]KVCW-NH2; disulfide 2-7) | 30.9 | 1000 | 5.4 | 45
C[C@@H](O)[C@H](NC(=O)[C@H](Cc1ccccc1)NC(=O)[C@@H](NC(=O)[C@H](CCCCN)NC(=O)[C@@H](Cc1c[nH]c2ccccc12)NC(=O)[C@H](Cc1ccccc1)NC(=O)[C@H](Cc1ccccc1)NC(=O)[C@H](N)Cc1ccccc1)[C@@H](C)O)C(N)=O [CAS_133073-82-2] (H-[dF]FF[dW]KTFT-NH2) |  | 31.3 | 13.5 | 141
C[C@@H](O)[C@H](NC(=O)[C@H](Cc1ccccc1)NC(=O)[C@@H](NC(=O)[C@H](CCCCN)NC(=O)[C@@H](Cc1c[nH]c2ccccc12)NC(=O)[C@H](Cc1ccc(O)cc1)NC(=O)[C@H](Cc1ccc(Cl)cc1)NC(=O)[C@H](N)Cc1ccc2ccccc2c1)[C@@H](C)O)C(N)=O [CAS_150155-63-8] (H-[d2Nal][Phe(4-Cl)]Y[dW]KTFT-NH2) |  |  | 26.2 | 1000
CC(C)[C@H](NC(=O)[C@H](CCCCN)NC(=O)[C@@H](Cc1c[nH]c2ccccc12)NC(=O)[C@H](Cc1ccc(O)cc1)NC(=O)[C@H](C)NC(=O)[C@H](N)Cc1ccc(Cl)cc1)C(=O)N[C@@H](C)C(=O)N[C@@H](Cc1ccc2ccccc2c1)C(N)=O [CAS_150155-67-2] (H-[dPhe(4-Cl)]AY[dW]KVA[2Nal]-NH2) |  |  | 55.5 | 1000
CC(C)[C@H](NC(=O)[C@H](CCCCN)NC(=O)[C@@H](Cc1c[nH]c2ccccc12)NC(=O)[C@H](Cc1ccc(O)cc1)NC(=O)[C@H](C)NC(=O)[C@H](N)Cc1ccc2ccccc2c1)C(=O)N[C@@H](C)C(=O)N[C@H](C(N)=O)[C@@H](C)O [D-Nal-Ala-Tyr-D-Trp-Lys-Val-Ala-Thr-NH2] (H-[d2Nal]AY[dW]KVAT-NH2) | 13.1 |  | 5.9 | 1000
C[C@@H](O)[C@H](NC(=O)[C@@H]1CSSC[C@H](NC(=O)[C@H](N)Cc2ccc3ccccc3c2)C(=O)N[C@@H](Cc2ccc(O)cc2)C(=O)N[C@H](Cc2c[nH]c3ccccc23)C(=O)N[C@@H](CCCCN)C(=O)N[C@@H]([C@@H](C)O)C(=O)N1)C(N)=O [D-Nal-c[Cys-Tyr-D-Trp-Lys-Thr-Cys]-Thr-NH2] | 11.5 | 41 | 0.4 | 58
CC[C@@H]1NC(=O)[C@H](CCCCN)NC(=O)[C@@H](Cc2c[nH]c3ccccc23)NC(=O)[C@H](Cc2ccc(O)cc2)NC(=O)[C@@H](NC(=O)[C@H](N)Cc2ccccc2)CSSC[C@@H](C(=O)N[C@@H](Cc2ccc3ccccc3c2)C(N)=O)NC1=O [D-Phe-Cys-Tyr-D-Trp-Lys-Abu-Cys-Nal-NH] (H-[dF]CY[dW]K[Abu]C[2Nal]-NH2; disulfide 2-7) | 0.09 | 1000 | 0.024 | 1000
CC[C@@H]1NC(=O)[C@H](CCCCN)NC(=O)[C@@H](Cc2c[nH]c3ccccc23)NC(=O)[C@H](Cc2ccc(O)cc2)NC(=O)[C@@H](NC(=O)[C@H](N)Cc2ccccc2)CSSC[C@@H](C(=O)N[C@H](C(N)=O)[C@@H](C)O)NC1=O [D-Phe-L-Cys(1)-L-Tyr-D-Trp-L-Lys-L-Abu-L-Cys(1)-L-Thr-NH2] | 8.2 |  |  | 1000
CC(C)[C@H](NC(=O)[C@H](CCCCN)NC(=O)[C@@H](Cc1c[nH]c2ccccc12)NC(=O)[C@H](Cc1ccc(O)cc1)NC(=O)[C@H](Cc1ccccc1)NC(=O)[C@H](N)Cc1ccccc1)C(=O)N[C@@H](Cc1ccccc1)C(=O)N[C@H](Cc1ccccc1)C(N)=O [D-Phe-Phe-Tyr-D-Trp-Lys-Val-Phe-D-Phe-NH2] (H-[dF]FY[dW]KVF[dF]-NH2) |  |  | 1000 | 500
CC(C)C1NC(=O)C(CCCCN)NC(=O)C(Cc2c[nH]c3ccccc23)NC(=O)C(Cc2ccc(O)cc2)NC(=O)C(NC(=O)C(N)Cc2cccc3ccccc23)CSSCC(C(=O)NC(CO)C(C)O)NC1=O (configuration not stated) [DC23-60] (H-[1Nal]CYWKVC[Thr(ol)]; disulfide 2-7; configuration not given here) | 73 | 70.4 | 0.26 | 1000
CC(O)C1NC(=O)C(CCCCN)NC(=O)C(Cc2c[nH]c3ccccc23)NC(=O)C(Cc2ccccc2)NC(=O)C(NC(=O)C(N)Cc2ccccc2)CSSCC(C(=O)NCc2cccc3ccccc23)NC1=O (configuration not stated) [EC5-21] (H-FCFWKTC-{NH(1-naphthylmethyl)}; disulfide 2-7; configuration not given here) | 69 |  | 0.028 | 207
CC(C)[C@H](NC(=O)[C@H](CCCCN)NC(=O)[C@@H](Cc1c[nH]c2ccccc12)NC(=O)[C@H](Cc1ccc(O)cc1)NC(=O)[C@H](C)NC(=O)[C@H](N)Cc1ccccc1)C(=O)N[C@@H](C)C(=O)N[C@@H](Cc1ccc2ccccc2c1)C(N)=O [L-Alaninamide,D-phenylalanyl-L-alanyl-L-tyrosyl-D-tryptophyl-L-lysyl-L-valyl-L-alanyl-3-(2-naphthalenyl)-(9CI)] (H-[dF]AY[dW]KVA[2Nal]-NH2) |  |  | 8.3 | 1000
